The record followed here is article PMC4850295, “Using a Genetically Encoded Sensor to Identify Inhibitors of Toxoplasma gondii Ca^2+ Signaling” (The Journal of Biological Chemistry, 2016).

The structures appear in SMILES notation.

The first assay has as its system T1, GCaMP5-expressing T. gondii.
T1 construct: whole extracellular parasites expressing GCaMP5 Ca2+ sensor
On the set-up: species or system GCaMP5-expressing Toxoplasma gondii, extracellular; GCaMP5 fluorescence (cytosolic Ca2+) after 100 uM zaprinast in compound-pretreated extracellular parasites, background-subtracted, relative to zaprinast alone. To be noted: 100 uM zaprinast stimulation, 10 min pretreatment, mean of two replicates, 0.23 h, 10 µM. The method in brief:
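Read-out is GCaMP5 calcium fluorescence (ex 485/em 525 nm) taken 4 min after 100 μM zaprinast at 37 °C, following 10 min compound pretreatment at 10 μM in duplicate biological replicates. Values are basal-subtracted fold change versus zaprinast-only controls; parasites held extracellular in Ringer's solution.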
On to `Nc1ncnc2occ(-c3ccc(NC(=O)Nc4cc(C(F)(F)F)ccc4F)cc3)c12` [GW770249A], for which the “fold change in fluorescence relative to zaprinast alone” value was 0.2788.

The assay is the same for the next values; noted with them: 100 uM zaprinast stimulation; 10 min pretreatment; mean of two replicates; 0.23 h.
Turning to `Cn1cncc1C(=O)NC1CCN(c2ccnc(Nc3ccc(F)cc3)n2)C1` (centres unmarked) [GSK1379717A], the “fold change in fluorescence relative to zaprinast alone” value was 1.089. For the compound `CN(C)CCCn1c(-c2nonc2N)nc2cnccc21` [SB-751399], the “fold change in fluorescence relative to zaprinast alone” value is 1.355.

Take `CCS(=O)(=O)c1ccc(OC)c(Nc2ncc(-c3cccc(-c4ccccc4F)c3)o2)c1` [GW678313X]: the “fold change in fluorescence relative to zaprinast alone” value was 1.071. As for `Cc1ccc(NC(=O)c2ccnc(N3CCCCC3)c2)cc1-c1ccc(C(=O)NCC2CC2)cc1` [GW775610X], the “fold change in fluorescence relative to zaprinast alone” value is given as 1.448.

Take `CCn1c(-c2nonc2N)nc2c(C#CC(C)(C)O)ncc(OC[C@@H]3CCCN3)c21` [GSK614526A]: the “fold change in fluorescence relative to zaprinast alone” value was determined as 1.198. On the same count and under the same terms, the figure for `c1ccc(Oc2ccc(Nc3ccnc4ccc(-c5ccccn5)cc34)cc2)cc1` [GW407034X] is 0.6551. As for `Cc1cc(O)cc(C)c1/C=C/c1cncc(C(=O)OC(C)(C)C)c1` [GW439255X], the “fold change in fluorescence relative to zaprinast alone” value is reported as 1.014. Still for that read-out and setting: the figure for `Cc1ccccc1-c1cc(-c2cn[nH]c2-c2ccccn2)ccn1` [GW680061X] is 0.8106; for `Cc1ccc(F)c(C(=O)Nc2cccc(-c3nn4ccccc4c3-c3ccnc(Nc4cccc(F)c4)n3)c2)c1F` [GSK361061A] it is 0.9289.

Turning to `Fc1cccc(COc2ccc(Nc3ncnc4sc(-c5cccs5)cc34)cc2Cl)c1` [GW684626B], the “fold change in fluorescence relative to zaprinast alone” value stood at 0.9792. The same measure, in the same setting: the figure for `CN(c1ccc(NC(=O)Nc2c(Cl)cccc2Cl)cc1)c1ccnc(Nc2cccc(CS(C)(=O)=O)c2)n1` [GW809897X] is 1.103.

As for `Cc1cccc2c1NC(=O)/C2=N\Nc1ccc(S(N)(=O)=O)cc1` [GW282536X], the “fold change in fluorescence relative to zaprinast alone” value turned out to be 1.189.

For the compound `COc1ccc2cc(-c3nc(-c4ccccc4C(C)C)[nH]c3-c3ccncc3)ccc2c1` [SB-660566], the “fold change in fluorescence relative to zaprinast alone” value amounted to 0.9646. The same measure, in the same setting: the figure for `CCOC(=O)N1CCC(n2cnc(-c3ccc(F)cc3)c2-c2ccnc(N)n2)CC1` [SB-219952] is 0.8316. As for `COc1cc(N2CCN(C(C)C)CC2)ccc1Nc1nc(Nc2ccc(F)cc2C(=O)NC[C@@H](O)CO)c2cc[nH]c2n1` [GSK1392956A], the “fold change in fluorescence relative to zaprinast alone” value was determined as 1.138.

As to `Cc1ccc(O)cc1Nc1ccnc2ccc(C(C)(C)C)cc12` [GW856805X], the “fold change in fluorescence relative to zaprinast alone” value was 0.3414. The same measure, in the same setting: the figure for `COC(=O)Nc1nc2ccc(Oc3ccc(NC(=O)Nc4cc(C(F)(F)F)ccc4Cl)cc3)cc2[nH]1` [GW697465A] is 0.849.

On to `Cc1ccc(S(=O)(=O)Nc2ccc(Nc3nccc(Nc4cccc5[nH]ncc45)n3)cc2)cc1` [GSK581271A], for which the “fold change in fluorescence relative to zaprinast alone” value came out at 0.8813. On the same count and under the same terms, the figure for `CCn1c(-c2ccccn2)nc2cnccc21` [SB-736398] is 1.076; for `CCn1cnc2c(NCc3ccccc3)ncnc21` [SKF-96418] it is 0.8238. Take `Fc1ccc(-c2ncn(C3CCNCC3)c2-c2ccnc(Nc3ccccc3)n2)cc1` [SB-238039-R]: the “fold change in fluorescence relative to zaprinast alone” value is on record as 0.4937. Same read-out and setting: the figure for `CCS(=O)(=O)c1ccc(OC)c(Nc2nccc(-c3c(-c4cccc(NC(=O)c5c(F)cccc5F)c4)nn4ncccc34)n2)c1` [GSK326180A] is 1.656; for `O=C(Nc1n[nH]c2cc(-c3ccoc3)ccc12)C1CC1` [SB-738481] it is 1.2. On the same count and under the same terms, the figure for `C#Cc1cccc(Nc2ncnc3ccc(OCCCCNCCS(C)(=O)=O)cc23)c1` [GW680191X] is 1.038; for `Nc1[nH]nc2ncc(-c3ccccc3)cc12` [SB-517081] it is 0.8708. Same read-out and setting: the figure for `Cc1ccc(NC(=O)Nc2cccc(Cl)c2)cc1-c1ccc(C(=O)Nc2ccncc2)cc1` [GSK1398468A] is 0.4262. For the compound `CN1CCN(CCNc2nc3ccc(Oc4ccc(NC(=O)Nc5cc(C(F)(F)F)ccc5F)cc4)cc3[nH]2)CC1` [GW768504A], the “fold change in fluorescence relative to zaprinast alone” value is recorded as 0.9512. Turning to `COc1cccc(NC(=O)NCCNc2ccnc(Nc3ccc(F)cc3)n2)c1` [GSK1379879A], the “fold change in fluorescence relative to zaprinast alone” value stood at 1.178. The same measure, in the same setting: the figure for `Cc1ccc(C(=O)NC(C)C)cc1-c1ccc(C(=O)NCC2CC2)cc1` [GW785974X] is 1.119. On to `COc1ccccc1Nc1ncc(-c2ccccc2)o1` [GW577921A], for which the “fold change in fluorescence relative to zaprinast alone” value stood at 0.9668. Same read-out and setting: the figure for `O=C(Nc1n[nH]c2cc(-c3cc(F)ccc3F)ccc12)C1CC1` [SB-735465] is 1.125; for `COc1ccc(CNC(=O)c2ccc(-c3cc(-c4nnc(C)o4)ccc3C)cc2)cc1` [GW701032X] it is 1.056; for `COc1cc(N2CCN(C(C)C)CC2)ccc1Nc1nc(Nc2cccc(F)c2C(=O)O)c2cc[nH]c2n1` [GSK1819799A] it is 1.115.

Regarding `Cc1c2ccc(N(C)c3ccnc(Nc4cccc(S(N)(=O)=O)c4)n3)cc2nn1C` [GW771127A], the “fold change in fluorescence relative to zaprinast alone” value is reported as 1.211. Consider `O=C(Nc1n[nH]c2nc(-c3cccc(O)c3)ccc12)C1CC1` [SB-711805], for which the “fold change in fluorescence relative to zaprinast alone” value is given as 0.905. With `CCCC(=O)Nc1[nH]nc2ncccc12` [SB-601436], the “fold change in fluorescence relative to zaprinast alone” value was 0.9225. On the same count and under the same terms, the figure for `COc1cccc(C2=C(Nc3cccc(O)c3)C(=O)NC2=O)c1` [SB-390771] is 0.8334; for `O=C(Nc1n[nH]c2nc(-c3ccc(O)cc3)ccc12)C1CC1` [SB-710363] it is 1.137; for `CN(C)c1cc(-c2ccc3c(N)n[nH]c3c2)nc(N)n1` [GSK2219329A] it is 0.9361. Same read-out and setting: the figure for `O=C(NCCNc1ccnc(Nc2ccc(F)cc2)n1)c1cc2ccccc2s1` [GSK1379874A] is 0.6895; for `CCn1c(-c2nonc2N)nc2c(C#CCN)ncc(OCCCN)c21` [GSK561866B] it is 1.218; for `CS(=O)(=O)CCNCc1nc(-c2ccc3ncnc(Nc4ccc(F)c(Cl)c4)c3c2)cs1` [GW461104B] it is 0.6524. The same measure, in the same setting: the figure for `FC(F)(F)c1cc(Br)cc(Nc2nccc(-c3cnn4ncccc34)n2)c1` [GW810578X] is 0.9472. With `CN(C)CCCC(=O)Nc1n[nH]c2nnc(-c3ccccc3)cc12` [SB-627772-A], the “fold change in fluorescence relative to zaprinast alone” value is recorded as 1.028. Same read-out and setting: the figure for `C[C@@H](Oc1cc(-n2cnc3cc(-c4ccnc(N5CCN(C)CC5)c4)ccc32)sc1C(N)=O)c1ccccc1Cl` [GSK641502A] is 1.062.

The assay is the same for the next values; noted with them: 0.23 h, 10 µM.
On to `O=C(Nc1n[nH]c2nnc(-c3cccnc3)cc12)C1CC1` [SB-675259-M], for which the “% of control remaining” value stood at 1.147.
